Measured values published in PubChem BioAssay (NCI).
Where “and” joins values, the source holds several entries; their conditions need not be identical. Identical values can stand only once.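 Interpolation was linear, between the two tested concentrations surrounding the appropriate level; five concentrations were tested over 48 hours in 96-well plates. GI50 marks 50% less growth. The concentration for full growth arrest is given as TGI.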 Where a SMILES comes first, the peptide text is derived from it. [ ]: non-standard residue; d: D form. The star is where a group is joined. Dolaproine = CO[C@@H]([C@@H]1CCCN1)[C@@H](C)C(=O)O; Dil = CC[C@H](C)[C@H](NC)[C@@H](CC(=O)O)OC; X2 = C[C@@H](N*)[C@@H](O)c1ccccc1; NMeV = CN[C@H](C(=O)O)C(C)C

Test system: MDA-MB-468 breast
Test: growth of human tumour cells (NCI), 48 h

## NC(N)=NN=C(c1ccccc1)c1ccccc1
  GI50: 2.2 µM
  TGI: 12.2 µM

## N#CC1(Nc2ccc(Br)cc2)CCCC1
  GI50: > 100 µM
  TGI: > 100 µM

## CNC(=O)c1ccccc1Nc1cc(Nc2ccc(N3CCOCC3)cc2OC)ncc1C(F)(F)F
  GI50: 27.8 µM
  TGI: 97.8 µM

## CCCCC(CCCCCC(CCCC)C1NC(C)Cc2cc(OC)c(OC)cc21)C1NC(C)Cc2cc(OC)c(OC)cc21 (stereo unspecified)
  GI50: 0.436 µM
  TGI: 1.88 µM

## Nc1n[nH]c2cccc(C#Cc3cccc(NC(=O)c4ccc(N5CCOCC5)c(C(F)(F)F)c4)c3)c12
  GI50: 2.28 µM
  TGI: 6.82 µM

## O=C1Nc2ccccc2/C1=C\c1c(-c2ccccc2)nc2ccccn12
  GI50: 2.1 µM
  TGI: 6.67 µM

## COc1cccc(C2=C(c3cn(C)c4ccc(Cl)cc34)C(=O)NC2=O)c1
  GI50: 4.17 µM
  TGI: 17.1 µM

## Nc1ccc(S(=O)(=O)c2ccc(N)cc2)cc1
  GI50: > 100 µM
  TGI: > 100 µM

## COc1ccc2cc(C#Cc3ccc(-n4c(/C=C/c5cc(OC)c(OC)c(OC)c5)nc5ccccc5c4=O)c(C)c3)ccc2c1
  GI50: 3.8 µM
  TGI: > 100 µM

## COc1cc(Nc2ccnc(NCCNc3ccnc4cc(Cl)ccc34)n2)cc(OC)c1
  GI50: 1.04 µM
  TGI: 3.33 µM

## C[C@]12CC[C@@H]3c4ccc(O)cc4CC[C@H]3[C@@H]1CC[C@@H]2NS(=O)(=O)c1ccc(Cl)cc1
  GI50: 4.94 µM
  TGI: 17.3 µM

## O=C(Nc1ccc2[nH]c3ccccc3c2c1)c1ccccc1Cl
  GI50: 2.86 µM
  TGI: 24.9 µM

## COc1ccc(/C(C)=C(\c2ccc(Cl)cc2)c2ccc(OCCN3CCCCC3)cc2)cc1
  GI50: 3.67 µM
  TGI: 8.03 µM

## CN[C@@H](C)C(=O)N[C@H]1CCS[C@H]2CC(C)(C)[C@@H](C(=O)N[C@H]3c4ccccc4C[C@H]3OCC#CC#CCO[C@@H]3Cc4ccccc4[C@@H]3NC(=O)[C@H]3N4C(=O)[C@@H](NC(=O)[C@H](C)NC)CCS[C@H]4CC3(C)C)N2C1=O
  GI50: < 0.005 µM
  TGI: 0.0164 µM

## Cc1nc2ccccc2nc1NNc1ccccc1
  GI50: 10.3 µM
  TGI: 58 µM

## O=C1/C=C/[C@@H](O)[C@@H]2C[C@@H](O)C[C@H]2/C=C/CCC[C@H](CCOCc2ccccc2)O1
  GI50: < 0.0161 µM
  TGI: 0.0312 µM

## CCNC(=O)N1CCc2cc(OC)c(OCCc3ccc(OC)cc3)cc2C1c1ccc(OC)cc1C (stereo unspecified)
  GI50: 1.93 µM
  TGI: > 30.2 µM

## COc1cc(/C=C/C(=O)c2ccc(Nc3nc(NCCO)nc(N4CCOCC4)n3)cc2)cc(OC)c1OC
  GI50: 1.34 µM
  TGI: 3.76 µM

## CSc1nc(-c2cc3ccccc3o2)cc(-c2ccc(Cl)cc2)c1C#N
  GI50: 21.8 µM
  TGI: > 100 µM

## Cc1ccc(C)c(NC2=C(Cl)C(=O)c3nc(C)ccc3C2=O)c1
  GI50: 1.51 µM
  TGI: 3.08 µM

## COc1cccc2[nH]c3c4c(c5c(c3c12)C(=O)N(CN1CCN(C)CC1)C5=O)CCC4
  GI50: 5.15 µM
  TGI: 26.6 µM

## COc1cc(C2C3=C(COC3=O)N(CCO)c3cc4c(cc32)OCO4)cc(OC)c1OC (stereo unspecified)
  GI50: 0.242 µM and 0.344 µM
  TGI: 0.626 µM and 0.979 µM

## COc1ccc(-c2cn[nH]c2-c2cc(OC)c(OC)c(OC)c2)cc1OCc1ccccc1
  GI50: 2.18 µM
  TGI: 7.94 µM

## COC1=C(OC)C(=O)C(CCCCCCCCCC[P+](c2ccccc2)(c2ccccc2)c2ccccc2)=C(C)C1=O
  GI50: 0.0668 µM
  TGI: 0.694 µM

## O=C1/C(=C/c2ccccc2)CN(C(=O)CCN2CCC(=NO)CC2)C/C1=C\c1ccccc1
  GI50: 1.74 µM
  TGI: 4.25 µM

## O=C(Nc1ncc(Cc2ccccc2)s1)c1sc2ccccc2c1Cl
  GI50: 1.4 µM
  TGI: 18.7 µM

## c1cc[n+](C2c3ccccc3C([n+]3ccccc3)c3ccccc32)cc1 (stereo unspecified)
  GI50: 1.11 µM
  TGI: 4.4 µM

## CC1CCCc2sc3nc(NNC(=O)c4cnccn4)n(-c4ccccc4)c(=O)c3c21 (stereo unspecified)
  GI50: 0.333 µM and 0.239 µM
  TGI: 2.3 µM and 0.946 µM

## C=CC(=O)N1CCN(CCCn2c(=O)c(-c3c(Cl)c(OC)cc(OC)c3Cl)cc3cnc(NC)nc32)CC1
  GI50: 1.24 µM
  TGI: 5.9 µM

## Clc1ccc(C(Cn2ccnc2)OCc2ccsc2Cl)c(Cl)c1 (stereo unspecified)
  GI50: 2.3 µM
  TGI: 7.3 µM

## CC[N+](CC)=c1cc2oc3cc(N(C)C)ccc3nc-2cc1C
  GI50: 1.33 µM
  TGI: 4.39 µM

## Cc1ccc(S(=O)(=O)c2ccccc2)cc1
  GI50: 1.59 µM
  TGI: 5.78 µM

## CCOc1cc(F)c([N+](=O)[O-])cc1[N+](=O)[O-]
  GI50: 1.86 µM
  TGI: 3.51 µM

## O=C(Cc1n[nH]c(=O)c2ccccc12)OCc1c(Cl)cccc1Cl
  GI50: > 100 µM
  TGI: > 100 µM

## COc1ccc2c(c1)C=CC1(O2)Oc2ccc(OC)cc2C=C1C (stereo unspecified)
  GI50: 0.876 µM
  TGI: > 100 µM

## Clc1ccc2c(N3CCN(c4ccnc(NC5CCCCC5)n4)CC3)ccnc2c1
  GI50: 1.64 µM
  TGI: 3.6 µM

## CC[C@H](C)[C@@H]([C@@H](CC(=O)N1CCC[C@H]1[C@H](OC)[C@@H](C)C(=O)N[C@H](C)[C@@H](O)c1ccccc1)OC)N(C)C(=O)[C@@H](NC(=O)[C@@H](NC)C(C)C)C(C)C (H-[NMeV]V[Dil][Dolaproine]-X2)
  GI50: < 0.005 µM
  TGI: > 57.1 µM

## O=C(C[n+]1cccc2cc(Cl)ccc21)c1ccc2c(c1)CCCC2
  GI50: 0.423 µM
  TGI: 1.82 µM
